Laboratory results reported in patent US6462037B1, “1,4-benzodiazepin-2-ones useful as HIV reverse transcriptase inhibitors” (Bristol-Myers Squibb Pharma Company, priority 1999, dated 2002).

In the case of CCC#CCN1CC(=O)Nc2ccc(Cl)cc2C1C(F)(F)F (stereo not shown) [compound 149, 7-Chloro-4-(2-pentynyl)-1,5-dihydro-5-(trifluoromethyl)-1,4-benzodiazepin-2-one], the melting point is reported as 123 to 124 °C. O=C1C=NC(CCC2CC2)(C(F)(F)F)c2cc(Cl)ccc2N1 (stereo not shown) [compound 193, 7-Chloro-5-(2-cyclopropylethyl)-1,5-dihydro-5-(trifluoromethyl)-1,4-benzodiazepin-2-one] showed a melting point of 152 to 155 °C. In the case of O=C1CN(Cc2ccccc2)C(C(F)(F)F)c2cc(Cl)ccc2N1 (stereo not shown) [compound 110, 7-Chloro-4-benzyl-1,5-dihydro-5-(trifluoromethyl)-1,4-benzodiazepin-2-one], the melting point is reported as 142 to 143 °C. With O=C1C=NC(CCc2ccccc2)(C(F)(F)F)c2cc(Cl)ccc2N1 (stereo not shown) [compound 170, 7-Chloro-5-(2-phenylethyl)-1,5-dihydro-5-(trifluoromethyl)-1,4-benzodiazepin-2-one] the melting point was 182 to 183 °C. In the case of CCCCCC1(C(F)(F)F)N=C(CC(C)C)C(=O)Nc2ccc(Cl)cc21 (stereo not shown) [compound 176, 7-Chloro-3-(2-methylpropyl)-5-pentyl-1,5-dihydro-5-(trifluoromethyl)-1,4-benzodiazepin-2-one], the melting point is reported as 94 to 95 °C. O=C1CN(Cc2cc(Br)cs2)C(C(F)(F)F)c2cc(Cl)ccc2N1 (stereo not shown) [compound 150, 7-Chloro-4-(4-bromothien-2-ylmethyl)-1,5-dihydro-5-(trifluoromethyl)-1,4-benzodiazepin-2-one] gave a melting point of 173 to 174 °C. In the case of CCCCCC1(C(F)(F)F)N=C(C)C(=O)Nc2ccc(Cl)cc21 (stereo not shown) [compound 171, 7-Chloro-3-methyl-5-(4-methylbutyl)-1,5-dihydro-5-(trifluoromethyl)-1,4-benzodiazepin-2-one], the melting point is reported as 103 to 104 °C. CCC#CCN1CC(=O)Nc2ccc(Cl)cc2C1C(F)(F)F (stereo not shown) [compound 160, 7-Chloro-4-(2-pentynyl)-1,5-dihydro-5-(trifluoromethyl)-1,4-benzodiazepin-2-one] showed a melting point of 114 to 115 °C. CCC1=NC(C#CC2CC2)(C(F)(F)F)c2ccccc2NC1=O (stereo not shown) [compound 186, 3-Ethyl-5-(cyclopropylethynyl)-1,5-dihydro-5-(trifluoromethyl)-1,4-benzodiazepin-2-one] gave a melting point of 181 to 182 °C. Work on COc1ccc(OC)c(CN2CC(=O)Nc3ccc(Cl)cc3C2C(F)(F)F)c1F (stereo not shown) [compound 145, 7-Chloro-4-(2,5-dimethoxy-6-fluorobenzyl)-1,5-dihydro-5-(trifluoromethyl)-1,4-benzodiazepin-2-one] yielded a melting point of 121 to 122 °C. With CC(C)CCC1(C(F)(F)F)N=CC(=O)Nc2ccc(Cl)cc21 (stereo not shown) [compound 188, 7-Chloro-5-(3-methylbutyl)-1,5-dihydro-5-(trifluoromethyl)-1,4-benzodiazepin-2-one] the melting point was 150 to 152 °C. For O=C1CN(c2ccccc2)C(C(F)(F)F)c2cc(Cl)ccc2N1 (stereo not shown) [compound 164, 7-Chloro-4-phenyl-1,5-dihydro-5-(trifluoromethyl)-1,4-benzodiazepin-2-one], the melting point was 187 to 188 °C. O=C1C=NC(C#CC2CC2)(C(F)(F)F)c2cc(F)ccc2N1 (stereo not shown) [compound 199, 7-Fluoro-5-(cyclopropylethynyl)-1,5-dihydro-5-(trifluoromethyl)-1,4-benzodiazepin-2-one] gave a melting point of 175 to 178 °C. CCC=CCN1CC(=O)Nc2ccc(Cl)cc2C1C(F)(F)F (stereo not shown) [compound 153, 7-Chloro-4-(2-penten-1-yl)-1,5-dihydro-5-(trifluoromethyl)-1,4-benzodiazepin-2-one] showed a melting point of 83 to 84 °C. O=C1C=NC(/C=C\C2CC2)(C(F)(F)F)c2cc(F)ccc2N1 (stereo not shown) [compound 200, 7-Fluoro-5-(2-cyclopropyl-Z-ethenyl)-1,5-dihydro-5-(trifluoromethyl)-1,4-benzodiazepin-2-one] gave a melting point of 158 to 160 °C. Work on CCCCC1(C(F)(F)F)N=CC(=O)Nc2ccc(Cl)cc21 (stereo not shown) [compound 203, 7-Chloro-5-butyl-1,5-dihydro-5-(trifluoromethyl)-1,4-benzodiazepin-2-one] yielded a melting point of 174 to 176 °C. Work on O=C1CN(CCCc2ccccc2)C(C(F)(F)F)c2cc(Cl)ccc2N1 (stereo not shown) [compound 109, 7-Chloro-4-(3-phenylpropyl)-1,5-dihydro-5-(trifluoromethyl)-1,4-benzodiazepin-2-one] yielded a melting point of 89 to 91 °C. With COc1ccccc1CN1CC(=O)Nc2ccc(Cl)cc2C1C(F)(F)F (stereo not shown) [compound 121, 7-Chloro-4-(2-methoxybenzyl)-1,5-dihydro-5-(trifluoromethyl)-1,4-benzodiazepin-2-one] the melting point was 145 to 146 °C. With CCC(C)CCN1CC(=O)Nc2ccc(Cl)cc2C1C(F)(F)F (stereo not shown) [compound 131, 7-Chloro-4-(3-methylpentyl)-1,5-dihydro-5-(trifluoromethyl)-1,4-benzodiazepin-2-one] the melting point was 113 to 116 °C. Molecule CC(C)CC1(C(F)(F)F)N=CC(=O)Nc2ccc(Cl)cc21 (stereo not shown) [compound 169, 7-Chloro-5-(2-methylpropyl)-1,5-dihydro-5-(trifluoromethyl)-1,4-benzodiazepin-2-one] has a melting point of 118 to 119 °C. COc1ccc2c(c1)C(C#CC1CC1)(C(F)(F)F)N=CC(=O)N2 (stereo not shown) [compound 198, 7-Methoxy-5-(cyclopropylethynyl)-1,5-dihydro-5-(trifluoromethyl)-1,4-benzodiazepin-2-one] showed a melting point of 145 to 146 °C. With COc1cccc(F)c1CN1CC(=O)Nc2ccc(Cl)cc2C1C(F)(F)F (stereo not shown) [compound 158, 7-Chloro-4-(2-fluoro-6-methoxybenzyl)-1,5-dihydro-5-(trifluoromethyl)-1,4-benzodiazepin-2-one] the melting point was 156 to 157 °C. In the case of CCCCCC1(C(F)(F)F)N=CC(=O)Nc2ccc(Cl)cc21 (stereo not shown) [compound 187, 7-Chloro-5-pentyl-1,5-dihydro-5-(trifluoromethyl)-1,4-benzodiazepin-2-one], the melting point is reported as 153 to 155 °C. Molecule COc1ccc(F)c(F)c1CN1CC(=O)Nc2ccc(Cl)cc2C1C(F)(F)F (stereo not shown) [compound 157, 7-Chloro-4-(2,3-difluoro-6-methoxybenzyl)-1,5-dihydro-5-(trifluoromethyl)-1,4-benzodiazepin-2-one] has a melting point of 170 to 171 °C. Molecule CN1CC(=O)Nc2ccc(Cl)cc2C1(C#CC1CC1)C(F)(F)F (stereo not shown) [compound 175, 7-Chloro-4-methyl-5-(cyclopropylethynyl)-1,5-dihydro-5-(trifluoromethyl)-1,4-benzodiazepin-2-one] has a melting point of 135 to 136 °C. For CCCCCC1(C(F)(F)F)N=C(C)C(=O)Nc2ccccc21 (stereo not shown) [compound 181, 3-Methyl-5-pentyl-1,5-dihydro-5-(trifluoromethyl)-1,4-benzodiazepin-2-one], the melting point was 139 to 140 °C. COc1cccc(F)c1CN1CC(=O)Nc2ccc(F)c(F)c2C1C(F)(F)F (stereo not shown) [compound 132, 6,7-Difluoro-4-(2-fluoro-6-methoxybenzyl)-1,5-dihydro-5-(trifluoromethyl)-1,4-benzodiazepin-2-one] gave a melting point of 168 to 170 °C. Molecule O=C1CN(Cc2ccccn2)C(C(F)(F)F)c2cc(Cl)ccc2N1 (stereo not shown) [compound 102, 7-Chloro-4-(2-pyridylmethyl)-1,5-dihydro-5-(trifluoromethyl)-1,4-benzodiazepin-2-one] has a melting point of 184 to 187 °C. O=C1C=NC(Cc2ccccc2)(C(F)(F)F)c2cc(Cl)ccc2N1 (stereo not shown) [compound 168, 7-Chloro-5-benzyl-1,5-dihydro-5-(trifluoromethyl)-1,4-benzodiazepin-2-one] gave a melting point of 160 to 161 °C. Molecule O=C1CN(CCc2ccccc2I)C(C(F)(F)F)c2cc(Cl)ccc2N1 (stereo not shown) [compound 140, 7-Chloro-4-(2-(2-iodophenyl)ethyl)-1,5-dihydro-5-(trifluoromethyl)-1,4-benzodiazepin-2-one] has a melting point of 172 to 173 °C. O=C1CN(CCc2ccccc2Cl)C(C(F)(F)F)c2cc(Cl)ccc2N1 (stereo not shown) [compound 138, 7-Chloro-4-(2-(2-chlorophenyl)ethyl)-1,5-dihydro-5-(trifluoromethyl)-1,4-benzodiazepin-2-one] gave a melting point of 161 to 162 °C. CCCCCC1(C(F)(F)F)N=CC(=O)Nc2ccc(Cl)cc21 (stereo not shown) [compound 179, 7-Chloro-5-pentyl-1,5-dihydro-5-(trifluoromethyl)-1,4-benzodiazepin-2-one] showed a melting point of 142 to 143 °C. In the case of COc1cccc(OC)c1CN1CC(=O)Nc2ccc(Cl)cc2C1C(F)(F)F (stereo not shown) [compound 143, 7-Chloro-4-(2,6-dimethoxybenzyl)-1,5-dihydro-5-(trifluoromethyl)-1,4-benzodiazepin-2-one], the melting point is reported as 128 to 129 °C. Molecule CCCCN1CC(=O)Nc2ccc(Cl)cc2C1C(F)(F)F (stereo not shown) [compound 100, 7-Chloro-4-butyl-1,5-dihydro-5-(trifluoromethyl)-1,4-benzodiazepin-2-one] has a melting point of 89 to 92 °C. For Cc1ccc(CN2CC(=O)Nc3ccc(Cl)cc3C2C(F)(F)F)nc1 (stereo not shown) [compound 104, 7-Chloro-4-(5-methyl-2-pyridylmethyl)-1,5-dihydro-5-(trifluoromethyl)-1,4-benzodiazepin-2-one], the melting point was 200 to 205 °C. CCC(C)CCN1CC(=O)Nc2ccc(Cl)cc2C1C(F)(F)F (stereo not shown) [compound 125, 7-Chloro-4-(3-methylpentyl)-1,5-dihydro-5-(trifluoromethyl)-1,4-benzodiazepin-2-one] showed a melting point of 66 to 67 °C. Work on CC(C)C#CC1(C(F)(F)F)c2c(ccc(F)c2F)NC(=O)CN1O (stereo not shown) [compound 133, 6,7-Difluoro-4-hydroxy-5-(3-methyl-1-butynyl)-1,5-dihydro-5-(trifluoromethyl)-1,4-benzodiazepin-2-one] yielded a melting point of 174 to 176 °C. In the case of CCCCN1CC(=O)Nc2ccc(Cl)cc2C1(C#CC(C)C)C(F)(F)F (stereo not shown) [compound 136, 7-Chloro-4-butyl-5-(3-methyl-1-butynyl)-1,5-dihydro-5-(trifluoromethyl)-1,4-benzodiazepin-2-one], the melting point is reported as 123 to 125 °C. In the case of O=C1CN(Cc2cccc(F)c2)C(C(F)(F)F)c2cc(Cl)ccc2N1 (stereo not shown) [compound 142, 7-Chloro-4-(3-fluorobenzyl)-1,5-dihydro-5-(trifluoromethyl)-1,4-benzodiazepin-2-one], the melting point is reported as 181 to 182 °C. Work on CC(C)CCC1(C(F)(F)F)N=CC(=O)Nc2ccc(Cl)cc21 (stereo not shown) [compound 189, 7-Chloro-5-(3-methylbutyl)-1,5-dihydro-5-(trifluoromethyl)-1,4-benzodiazepin-2-one] yielded a melting point of 151 to 153 °C.
